Assay results from patent US20040180880A1, “Piperazine and piperidine derivatives” (priority 2002, published 2004).
Where a name gives a salt, the structure may show the parent alone.

Columns and labels:
[1] = system: rat embryo ventral mesencephalic (VM) cells; experiment: Neuroprotection assay: NMDA injury of ventral mesencephalic cultures, read by high affinity 3H-dopamine uptake; type: cell-based; conditions: embryonic day 15 Sprague-Dawley rat VM cells, NMDA 100-400 μM for 20 hours, read-out: DAT (VM) IC50
Excerpt: The neuroprotective activity of the compounds of this invention may be assayed using rat embryo ventral mesencephalic cells in culture which are subsequently exposed to the glutamate receptor agonist NMDA. This assay is described in detail in the example section.
The ventral mesencephalic region was dissected out of embryonic day 15 Sprague-Dawley rat embryos (Harlan), dissociated into single cell suspension by a combination of trypsinization and trituration (Costantini et al., Neurobiol Dis., pp. 97-106 (1998). Dissociated VM cells were plated into poly-L-ornithine-coated 96-well plates at a density of 85,000 cells/well in 100 uL of DMEM supplemented with 18% heat-inactivated horse serum, 0.24% glucose, 2 mM glutamine and 50 u/ml pernicillin/streptomycin and incubated in a 5% CO2 incubator. After one day in culture (DIV1), the medium was replaced with 100 μL of a defined medium (DMEM supplemented with 1×N2 cocktail (Gibco-BRL), 0.12% glucose, 2 mM glutamine, and […] penicillin/streptomycin) containing DMSO or various concentrations of the compounds of this invention. On DIV5, neuroexcitotoxic injury was induced by the addition of various concentrations of the glutamate receptor agonist NMDA (100-400 μM). Cultures were incubated with the neurotoxin for 20 hours and the effects of neurophilin compounds were assessed using high affinity ^3H-dopamine uptake according to a procedure published by Park and Mytilineou [Brain Res., 599, pp. 83-97 (1992)].

melting point [°C]	Structure (SMILES)	IC50 [1] [nM]
84 to 85	O=C(C1CCCCN1)N1CCN(C(c2ccc(F)cc2F)c2ccc(F)cc2F)CC1 (stereo not shown) (as salt: hydrochloride) [Compound 9, {4-[Bis-(2,4-difluoro-phenyl)-methyl]-piperazin-1-yl}-piperidin-2-yl-methanone]	–
–	O=C(C1CCCCN1)N1CCN(C(c2ccc(F)cc2F)c2ccc(F)cc2F)CC1 (stereo not shown) [Compound 9, {4-[Bis-(2,4-difluoro-phenyl)-methyl]-piperazin-1-yl}-piperidin-2-yl-methanone]	145
–	O=C(C1CCCCN1)N1CCN(C(c2ccc(F)c(F)c2)c2ccc(F)c(F)c2)CC1 (stereo not shown) [Compound 17, (4-(Bis-(3,4-difluoro-phenyl)-methyl)piperazine-1-yl)-piperidin-2-yl-methanone]	6
–	O=C(C1CCCCN1)N1CCN(C(c2ccc(F)cc2)c2ccc(F)cc2)CC1 (stereo not shown) [Compound 28, (4-(Bis-(4-fluoro-phenyl)-methyl)piperazine-1-yl)-piperidin-2-yl-methanone dihydrochloride]	12
